# What was measured:
# Candida-Zellen = assay: Antimycotic in-vivo activity (oral) in mouse candidosis; parameters: species or system Mäuse vom Typ SPF-CF1; details: 50-100 mg/kg each 1 h before and 7 h after i.v. infection, untreated controls about 5 % survival on day 6 p.i.
# Protocol: Antimykotische in-vivo-Wirksamkeit (oral) bei Mäuse-Candidose
# Mäuse vom Typ SPF-CF1 wurden intravenös mit 1-2 x 10^6 logarithmisch wachsenden Candida-Zellen, die in physiologischer Kochsalzlösung suspendiert waren, infiziert. Eine Stunde vor und sieben Stunden nach der Infektion werden die Tiere mit jeweils 50-100 mg/kg Körpergewicht der Präparate oral behandelt.
# Unbehandelte Tiere starben 3 bis 6 Tage post infektionem. Die Ueberlebensrate am 6.Tag post infektionem betrug bei unbehandelten Kontrolltieren etwa 5 %.
# [1] = test system: Dermatophyten und Schimmelpilze; Hefen; assay: Antimycotic in-vitro activity, serial dilution test; format: cell-based; details: inoculum 5 x 10^4 germs/ml, 28°C, 24 h (yeasts) or 96 h (dermatophytes, moulds), stated relative to prior-art compound (A)
# Protocol: Antimykotische in-vitro-Wirksamkeit
# Die in-vitro-Wirksamkeit im Reihenverdünnungstest wird mit Keiminokula von durchschnittlich 5 x 10^4 Keimen /ml Substant durchgeführt. Als Nährmedium dienten: • a) für Dermatophyten und Schimmelpilze: Sabouraud's milieu d'epreuve • b) für Hefen: Isotonic Sensitest-Broth von Oxid.
# Die Bebrütungstemperatur berug 28°C; Bebrütungsdauer war 24 Stunden bei Hefen und 96 Stunden bei Dermatophyten und Schimmelpilzen.
# [2] = test system: Trichophyton mentagrophytes; assay: Antimicrobial in-vivo activity (local), experimental guinea pig trichophytosis model; parameters: species or system Meerschweinchen der Rasse Pirbright-white; details: once daily from day 3 p.i., 1 % solution in dimethyl sulfoxide:glycerol 1:4, result means only slight reddening and isolated scales
# Text: Antimikrobielle in-vivo-Wirksamkeit (lokal) am Modell der experimetellen Meerschweinchen-Trichophytie
# Weiße Meerschweinchen der Rasse Pirbright-white wurden auf dem geschorenen, nicht skarifizierten Rücken mit einer Mikro- und Makrokonidien-Suspension von Trichophyton mentagrophytes infiziert. Die infizierten Tiere wurden, beginnend am 3.Tag p.i., lx täglich mit 1%-iger Lösung der erfindungsgemäßen Präparate (in Dimethylsulfoxid:Glycerin=1:4) lokal behandelt.
# Bei unbehandelten Tieren entwickelt sich innerhalb von 12 Tagen p.i. das typische Bild einer Dermatophytose mit Rötung, Schuppung und Haarausfall bis zum totalen Integument-Defekt an der Infektionsstelle.
Structure (SMILES),Wirkung (Mäuse-Candidose) (Candida-Zellen),antimykotische Wirkung [1],Wirkung (Meerschweinchen-Trichophytie) [2]
"CC(C)(C)C(O)C(=Cc1ccc(Cl)cc1)n1ccnc1 (stereo not shown) [(B), reference compound]",keine Wirkung,–,–
CC(C)(C)C(=O)C(=CC1CCCC1)n1ccnc1 [Beispiel 10],–,bessere antimykotische Wirkung,–
CC(C)(C)C(O)C(=CC1CCCCC1)n1ccnc1 (stereo not shown) [Beispiel 37],–,bessere antimykotische Wirkung,–
CC(C)C=C(C(=O)C(C)(C)C)n1ccnc1 [Beispiel 5],gute bis sehr gute Wirkung,bessere antimykotische Wirkung,–
"CC(C)(C)C(=O)C(=Cc1ccccc1Cl)n1ccnc1 [Verbindung (A), reference compound]",keine Wirkung,–,–
CCCCCCCC=C(C(=O)C(C)(C)C)n1ccnc1 [Beispiel 1],–,bessere antimykotische Wirkung,Wirkung bis gute Wirkung
CCC(C)C=C(C(=O)C(C)(C)C)n1ccnc1 (stereo not shown) [Beispiel 8],gute bis sehr gute Wirkung,bessere antimykotische Wirkung,Wirkung bis gute Wirkung
CC(C)(C)C(O)C(=CC1c2ccccc2-c2ccccc21)n1ccnc1 (stereo not shown) [Beispiel 32],–,bessere antimykotische Wirkung,–
CCC(C)C=C(C(O)C(C)(C)C)n1ccnc1 (stereo not shown) [Beispiel 27],–,–,Wirkung bis gute Wirkung
CCCCCCCC=C(C(O)C(C)(C)C)n1ccnc1 (stereo not shown) [Beispiel 2],–,bessere antimykotische Wirkung,Wirkung bis gute Wirkung
CC(C)(C)C(O)C(=CC1CCCC1)n1ccnc1 (stereo not shown) [Beispiel 28],–,bessere antimykotische Wirkung,–
CC=C(C(O)C(C)(C)C)n1ccnc1 (stereo not shown) [Beispiel 25],gute bis sehr gute Wirkung,–,–
CC(C)(C)C=C(C(=O)C(C)(C)C)n1ccnc1 [Beispiel 7],gute bis sehr gute Wirkung,bessere antimykotische Wirkung,–
